Data as given in ChEMBL document CHEMBL1127999, “Diphenylborinic acid is a strong inhibitor of serine proteases” (Bioorg Med Chem Lett, 1994).

Legend:
Chymotrypsinogen A = Chymotrypsinogen A (Bos taurus, UniProt P00766)
Description: Compound was tested for the inhibition of chymotrypsin

Serine protease 1 = target: T1, Serine protease 1 (Bos taurus, UniProt P00760)
T1 sequence (P00760 whole entry): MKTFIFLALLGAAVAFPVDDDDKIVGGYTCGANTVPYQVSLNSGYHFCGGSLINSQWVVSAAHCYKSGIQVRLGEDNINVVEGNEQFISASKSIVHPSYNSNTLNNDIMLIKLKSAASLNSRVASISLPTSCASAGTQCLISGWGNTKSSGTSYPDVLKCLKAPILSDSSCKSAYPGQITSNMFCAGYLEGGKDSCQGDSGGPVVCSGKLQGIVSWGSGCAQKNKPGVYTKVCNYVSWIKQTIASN
Description: Compound was tested for the inhibition of trypsin

Description for physchem: Dissociation constant of compound was determined

Row | Ki (Chymotrypsinogen A) [mM] | pKa (physchem) | Ki (Serine protease 1) [mM] | pKa | SMILES
1 | 0.03 | 8.1 |  |  | CB(O)c1ccccc1 [PHENYL METHYL BORINIC ACID]
2 |  |  | 10.2 | 8.85 | OB(O)c1ccccc1 [PHENYLBORONIC ACID]
